Measured values taken from article PMC9020739, “Identification of a two-component regulatory system involved in antimicrobial peptide resistance in Streptococcus pneumoniae” (PLoS Pathogens, 2022).
Where a SMILES comes first, the peptide text is derived from it. Bridges are numbered along the chain shown (N, C = ends). [ ]: non-standard residue; d: D form. The star is where a group is joined. X1 = CC[C@H](C)CCCCC(=O)*; Dab = NCC[C@H](N)C(=O)O

Key:
[1] = target: BceAB transporter from S. pneumoniae (Streptococcus pneumoniae, UniProt A0A0H2ZN40); assay type: biochemical; conditions: for nH (positive cooperativity): ATPase/GTPase activity as a function of nucleotide concentration, fitted with positive cooperativity, proteoliposomes
Experimental: E. coli BL21(DE3) cells were transformed with pRSF-Duet1-BceAB WT, K48A or E170Q and selected on LB-agar plates containing 50 μg/mL kanamycin. One colony was inoculated into in 2L-baffled flasks containing 500 mL of 2YT medium and 50 μg/mL kanamycin and grown at 37°C, 180 rpm to OD600 of 0.6. Protein expression was induced by adding IPTG to a final concentration of 1 mM. Induction was performed overnight at 25°C and cells were harvested by centrifugation at 7,000 g for 20 min.
Cells were resuspended in buffer A (HEPES-NaOH 100 mM pH 8.0, NaCl 150 mM) and lysed by passaging them three times through a cell disruptor (Microfluidizer, Microfluidics) at 18,000 psi (or 1,24 x 108 Pa). Undisrupted cells and cell debris were removed by centrifugation at 15,000 x g for 30 min at 4°C. Membranes were harvested from the supernatant after ultracentrifugation at 150,000 x g for 1 h at 4°C. Membranes were resuspended in 20 mL of buffer A and centrifuged once again at 150,000 x g for 1 h at 4°C. Membrane pellets were homogenized in buffer HEPES-NaOH 100 mM pH 8.0, NaCl 150 mM and 20% glycerol, and stored at -80°C.
For the purification of BceAB, membranes from 0,5 L cell culture were diluted in buffer B (100 mM d’HEPES-NaOH pH 8, 150 mM NaCl, 10% glycerol) to a protein concentration of 4 mg/mL and solubilized with 0.5% (w/v) LMNG for 2 h at 4°C. After ultracentrifugation at 150,000 x g for 1 h at 4°C, the supernatant containing solubilized proteins was diluted four times using buffer B and loaded on Ni^2+-charged immobilized metal-ion affinity chromatography (IMAC) column (1 mL HisTrap HP, Cytiva). The column was washed with 10 mL of buffer B containing 0.005% (w/v) LMNG and 20 mM of imidazole. The column was further washed with the same buffer until OD280nm reached basal levels. BceAB was eluted by buffer B containing 0.005% (w/v) LMNG and an imidazole gradient from 20 to 500 mM of imidazole. Purified BceAB was dialyzed into buffer B containing 0.005% (w/v) LMNG and stored at -80°C.
The proteoliposomes were prepared as previously described for the transporter BmrA [50]. Proteoliposomes were loaded on sucrose gradient with different layers of 400 μL of 50 mM HEPES-KOH pH 8.0 buffer containing 30, 20, 15 or 10% of sucrose. One mL of proteoliposomes was loaded on the top of the sucrose gradient and ultra-centrifuged at 200,000 x g for 12 h at 4°C. Proteoliposomes were typically collected from the 15% layer and were loaded on SDS-PAGE to analyze and quantify the presence of BceAB by using a standard-curve of purified BceAB and ImageJ.
These activities were performed as previously described.

S. pneumoniae R6 WT = assay type: cell-based, Streptococcus pneumoniae; conditions: R6 strain; for Minimum Inhibitory Concentration, WT: 2-fold broth dilution, Todd-Hewitt medium, 96-well plates, start OD600 0.002, 37°C, A600 followed 15 h, two to four biological replicates, each technical duplicates; for Fold sensitivity displayed by the KO strains: KO strains versus WT MIC
Experimental: (§1) The MIC of various antimicrobial peptides for R6, R800 and D39 strains was determined by classical 2-fold broth dilution method. Cells were first grown in Todd-Hewitt medium at 37°C without agitation and in anaerobic conditions until the absorbance reaches approximatively 0.3. Complementation strains were grown with 0.5 μM ComS inducer until the appropriate OD. Cells were then diluted at final OD600nm = 0.002 in 96-well plates containing 300 μL of Todd-Hewitt medium (and 2 μM ComS inducer for the complementation strains) with serial dilutions of antimicrobial peptides. Pneumococcal growth was monitored by a microplate reader (TECAN) at 37°C without agitation. The absorbance was followed at 600 nm every 15 min for 15 h.

S. pneumoniae R6 Δtcs01 = assay type: cell-based, Streptococcus pneumoniae; conditions: R6 strain; 2-fold broth dilution, Todd-Hewitt medium, 37°C, 15 h; two to four biological replicates, each technical duplicates
Experimental: as §1

S. pneumoniae R6 ΔbceAB = assay type: cell-based, Streptococcus pneumoniae; conditions: R6 strain; 2-fold broth dilution, Todd-Hewitt medium, 37°C, 15 h; two to four biological replicates, each technical duplicates
Experimental: as §1

[2] = tested on: S. pneumoniae R6 ΔbceAB/tcs01; assay type: cell-based, Streptococcus pneumoniae; conditions: R6 strain; 2-fold broth dilution, Todd-Hewitt medium, 37°C, 15 h; two to four biological replicates, each technical duplicates
Experimental: as §1

S. pneumoniae D39 Δtcs01 = assay type: cell-based, Streptococcus pneumoniae; conditions: D39 strain; 2-fold broth dilution, Todd-Hewitt medium, 37°C, 15 h; two to four biological replicates, each technical duplicates
Experimental: as §1

S. pneumoniae R800 WT = assay type: cell-based, Streptococcus pneumoniae; conditions: R800 strain; 2-fold broth dilution, Todd-Hewitt medium, 37°C, 15 h; at least biological triplicates, each technical duplicates
Experimental: as §1

S. pneumoniae D39 WT = assay type: cell-based, Streptococcus pneumoniae; conditions: D39 strain; for Minimum Inhibitory Concentration, WT: 2-fold broth dilution, Todd-Hewitt medium, 37°C, 15 h, two to four biological replicates, each technical duplicates; for Fold sensitivity diplayed by the KO strains: KO strains versus WT MIC
Experimental: as §1

[3] = tested on: S. pneumoniae R800 bceAB-gfp; assay type: cell-based, Streptococcus pneumoniae; conditions: R800 strain; 2-fold broth dilution, Todd-Hewitt medium, 37°C, 15 h; at least biological triplicates, each technical duplicates
Experimental: as §1

[4] = tested on: S. pneumoniae D39 ΔbceAB/tcs01; assay type: cell-based, Streptococcus pneumoniae; conditions: D39 strain; 2-fold broth dilution, Todd-Hewitt medium, 37°C, 15 h; two to four biological replicates, each technical duplicates
Experimental: as §1

[5] = tested on: S. pneumoniae R800 Δhk01-PcomX-hk01; assay type: cell-based, Streptococcus pneumoniae; conditions: R800 complementation strain, 2 μM ComS inducer; 2-fold broth dilution, Todd-Hewitt medium, 37°C, 15 h; at least biological triplicates, each technical duplicates
Experimental: as §1

[6] = tested on: S. pneumoniae R800 ΔbceAB; assay type: cell-based, Streptococcus pneumoniae; conditions: R800 strain; 2-fold broth dilution, Todd-Hewitt medium, 37°C, 15 h; at least biological triplicates, each technical duplicates
Experimental: as §1

S. pneumoniae R800 Δhk01 = assay type: cell-based, Streptococcus pneumoniae; conditions: R800 strain; 2-fold broth dilution, Todd-Hewitt medium, 37°C, 15 h; at least biological triplicates, each technical duplicates
Experimental: as §1

S. pneumoniae D39 ΔbceAB = assay type: cell-based, Streptococcus pneumoniae; conditions: D39 strain; 2-fold broth dilution, Todd-Hewitt medium, 37°C, 15 h; two to four biological replicates, each technical duplicates
Experimental: as §1

[7] = tested on: S. pneumoniae R800 ΔbceAB-Δhk01-PcomX-hk01; assay type: cell-based, Streptococcus pneumoniae; conditions: R800 complementation strain, 2 μM ComS inducer; 2-fold broth dilution, Todd-Hewitt medium, 37°C, 15 h; at least biological triplicates, each technical duplicates
Experimental: as §1

Nc1ncnc2c1ncn2[C@@H]1O[C@H](COP(=O)(O)OP(=O)(O)OP(=O)(O)O)[C@@H](O)[C@H]1O [ATP]
nH (positive cooperativity) [1]: 2.4

Nc1nc2c(ncn2[C@@H]2O[C@H](COP(=O)(O)OP(=O)(O)OP(=O)(O)O)[C@@H](O)[C@H]2O)c(=O)[nH]1 [GTP]
nH (positive cooperativity) [1]: 1.9

CC[C@H](C)CCCCC(=O)N[C@@H](CCN)C(=O)N[C@H](C(=O)N[C@@H](CCN)C(=O)N[C@H]1CCNC(=O)[C@H]([C@@H](C)O)NC(=O)[C@H](CCN)NC(=O)[C@H](CCN)NC(=O)[C@H](CC(C)C)NC(=O)[C@@H](CC(C)C)NC(=O)[C@H](CCN)NC1=O)[C@@H](C)O [colistin] (X1-[Dab]T[Dab][Dab][Dab][dL]L[Dab][Dab]T; lactam 4-C (inferred); N-terminus assumed)
Minimum Inhibitory Concentration, WT (S. pneumoniae R6 WT): 256 µg/mL | Fold sensitivity displayed by the KO strains (S. pneumoniae R6 WT): 1 | Minimum Inhibitory Concentration, Δtcs01 (S. pneumoniae R6 Δtcs01): 256 µg/mL | Minimum Inhibitory Concentration, ΔbceAB (S. pneumoniae R6 ΔbceAB): 256 µg/mL | Minimum Inhibitory Concentration, ΔbceAB/tcs01 [2]: 256 µg/mL

CC[C@H](C)[C@H](N)C(=O)N[C@@H](CC(N)=O)C(=O)N[C@@H](CC(C)C)C(=O)N[C@@H](CCCCN)C(=O)N[C@@H](C)C(=O)N[C@@H](CC(C)C)C(=O)N[C@@H](C)C(=O)N[C@@H](C)C(=O)N[C@@H](CC(C)C)C(=O)N[C@@H](C)C(=O)N[C@@H](CCCCN)C(=O)N[C@@H](CCCCN)C(=O)N[C@H](C(=O)N[C@@H](CC(C)C)C(N)=O)[C@@H](C)CC [mastoporan]
Fold sensitivity displayed by the KO strains (S. pneumoniae R6 WT): 1

Microbisporicin [Microbisporicin (NAI-107)]
Minimum Inhibitory Concentration, WT (S. pneumoniae R6 WT): 0.032 µg/mL | Fold sensitivity displayed by the KO strains (S. pneumoniae R6 WT): 4 | Minimum Inhibitory Concentration, Δtcs01 (S. pneumoniae R6 Δtcs01): 0.008 µg/mL | Minimum Inhibitory Concentration, ΔbceAB (S. pneumoniae R6 ΔbceAB): 0.008 µg/mL | Minimum Inhibitory Concentration, ΔbceAB/tcs01 [2]: 0.008 µg/mL

Planosporicin [Planosporicin (NAI-97)]
Minimum Inhibitory Concentration, WT (S. pneumoniae R6 WT): 16 µg/mL | Fold sensitivity displayed by the KO strains (S. pneumoniae R6 WT): 8 | Minimum Inhibitory Concentration, Δtcs01 (S. pneumoniae R6 Δtcs01): 2 µg/mL | Minimum Inhibitory Concentration, ΔbceAB (S. pneumoniae R6 ΔbceAB): 2 µg/mL | Minimum Inhibitory Concentration, ΔbceAB/tcs01 [2]: 2 µg/mL

actagardin
Minimum Inhibitory Concentration, Δtcs01 (S. pneumoniae D39 Δtcs01): 2 µg/mL | MIC, WT (S. pneumoniae R800 WT): 32 µg/mL | Minimum Inhibitory Concentration, WT (S. pneumoniae D39 WT): 32 µg/mL | Fold sensitivity diplayed by the KO strains (S. pneumoniae D39 WT): 16 | MIC, bceAB-gfp [3]: 32 µg/mL | Minimum Inhibitory Concentration, WT (S. pneumoniae R6 WT): 32 µg/mL | Fold sensitivity displayed by the KO strains (S. pneumoniae R6 WT): 16 | Minimum Inhibitory Concentration, ΔbceAB/tcs01 [4]: 2 µg/mL | MIC, Δhk01-PcomX-hk01 [5]: 32 µg/mL | Minimum Inhibitory Concentration, Δtcs01 (S. pneumoniae R6 Δtcs01): 2 µg/mL | MIC, ΔbceAB [6]: 4 µg/mL | MIC, Δhk01 (S. pneumoniae R800 Δhk01): 4 µg/mL | Minimum Inhibitory Concentration, ΔbceAB (S. pneumoniae D39 ΔbceAB): 2 µg/mL | Minimum Inhibitory Concentration, ΔbceAB (S. pneumoniae R6 ΔbceAB): 2 µg/mL | Minimum Inhibitory Concentration, ΔbceAB/tcs01 [2]: 2 µg/mL | MIC, ΔbceAB-Δhk01-PcomX-hk01 [7]: 4 µg/mL

gramicidin
Minimum Inhibitory Concentration, WT (S. pneumoniae R6 WT): 0.016 µg/mL | Fold sensitivity displayed by the KO strains (S. pneumoniae R6 WT): 1 | Minimum Inhibitory Concentration, Δtcs01 (S. pneumoniae R6 Δtcs01): 0.016 µg/mL | Minimum Inhibitory Concentration, ΔbceAB (S. pneumoniae R6 ΔbceAB): 0.016 µg/mL | Minimum Inhibitory Concentration, ΔbceAB/tcs01 [2]: 0.016 µg/mL

ramoplanin
Effect on ATPase activity of BceAB ([1]; BceAB proteoliposomes, Fig 7B, triplicates, representative of at least two experiments): clear inhibitory effect | Minimum Inhibitory Concentration, Δtcs01 (S. pneumoniae D39 Δtcs01): 0.03 µg/mL | MIC, WT (S. pneumoniae R800 WT): 0.02 µg/mL | Minimum Inhibitory Concentration, WT (S. pneumoniae D39 WT): 0.03 µg/mL | Fold sensitivity diplayed by the KO strains (S. pneumoniae D39 WT): 1 | MIC, bceAB-gfp [3]: 0.02 µg/mL | Minimum Inhibitory Concentration, WT (S. pneumoniae R6 WT): 0.02 µg/mL | Fold sensitivity displayed by the KO strains (S. pneumoniae R6 WT): 1 | Minimum Inhibitory Concentration, ΔbceAB/tcs01 [4]: 0.03 µg/mL | MIC, Δhk01-PcomX-hk01 [5]: 0.02 µg/mL | Minimum Inhibitory Concentration, Δtcs01 (S. pneumoniae R6 Δtcs01): 0.02 µg/mL | MIC, ΔbceAB [6]: 0.02 µg/mL | MIC, Δhk01 (S. pneumoniae R800 Δhk01): 0.02 µg/mL | Minimum Inhibitory Concentration, ΔbceAB (S. pneumoniae D39 ΔbceAB): 0.03 µg/mL | Minimum Inhibitory Concentration, ΔbceAB (S. pneumoniae R6 ΔbceAB): 0.02 µg/mL | Minimum Inhibitory Concentration, ΔbceAB/tcs01 [2]: 0.02 µg/mL | MIC, ΔbceAB-Δhk01-PcomX-hk01 [7]: 0.02 µg/mL
